Results from PubChem BioAssay AID1845210 (Molecular Pharmacology Branch, DTP, NCI, 2023).
pIC50: −log10 of the molar value.

Test system: NCI-H226 complex tumor spheroids, viability
Experiment: Anticancer human tumor NCI-H226 cell line growth inhibition;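 note: spheroids exposed to compound for 7 days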;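 for viability, T/C: 100% = DMSO vehicle control viability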
Conditions: for pIC50: curve of first compound; for viability, T/C: stronger effect = lower value
Outline: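 Complex spheroids of malignant cells with endothelial cells and mesenchymal stem cells; agents alone or combined, from near clinical Cmax (or 10 microM if unknown) down in half-log steps, 0.25% DMSO final.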

[1] = second compound 0.003 µM, first compound 0.00949 µM
[2] = second compound 0.003 µM, first compound 0.03 µM
[3] = second compound 0.003 µM, first compound 0.0949 µM
[4] = second compound 0.003 µM, first compound 0.3 µM
[5] = second compound 0.003 µM, first compound 0.949 µM
[6] = second compound 0.003 µM, first compound 3 µM

## CNCc1ccc(-c2cc(-c3nc(-c4ccc(S(=O)(=O)C(C)C)cc4)cnc3N)on2)cc1 + COc1cc2c(cc1O)CCNC21CSC2c3c(OC(C)=O)c(C)c4c(c3C(COC1=O)N1C(O)C3Cc5cc(C)c(OC)c(O)c5C(C21)N3C)OCO4
Second compound 30 pM
  pIC50: 5.79
Second compound 94.9 pM
  pIC50: 5.83
Second compound 0.0003 µM
  pIC50: 5.82
Second compound 0.000949 µM
  pIC50: 5.99
Second compound 0.003 µM
  pIC50: > 8.02
Second compound 30 pM, first compound 0.00949 µM
  viability, T/C: 89.5%
Second compound 30 pM, first compound 0.03 µM
  viability, T/C: 96.1%
Second compound 30 pM, first compound 0.0949 µM
  viability, T/C: 103%
Second compound 30 pM, first compound 0.3 µM
  viability, T/C: 123%
Second compound 30 pM, first compound 0.949 µM
  viability, T/C: 91.9%
Second compound 30 pM, first compound 3 µM
  viability, T/C: 0.9%
Second compound 94.9 pM, first compound 0.00949 µM
  viability, T/C: 85.9%
Second compound 94.9 pM, first compound 0.03 µM
  viability, T/C: 99.4%
Second compound 94.9 pM, first compound 0.0949 µM
  viability, T/C: 105%
Second compound 94.9 pM, first compound 0.3 µM
  viability, T/C: 127%
Second compound 94.9 pM, first compound 0.949 µM
  viability, T/C: 80.9%
Second compound 94.9 pM, first compound 3 µM
  viability, T/C: 0.45%
Second compound 0.0003 µM, first compound 0.00949 µM
  viability, T/C: 89.7%
Second compound 0.0003 µM, first compound 0.03 µM
  viability, T/C: 105%
Second compound 0.0003 µM, first compound 0.0949 µM
  viability, T/C: 106%
Second compound 0.0003 µM, first compound 0.3 µM
  viability, T/C: 138%
Second compound 0.0003 µM, first compound 0.949 µM
  viability, T/C: 82.9%
Second compound 0.0003 µM, first compound 3 µM
  viability, T/C: 0.44%
Second compound 0.000949 µM, first compound 0.00949 µM
  viability, T/C: 88.1%
Second compound 0.000949 µM, first compound 0.03 µM
  viability, T/C: 94.1%
Second compound 0.000949 µM, first compound 0.0949 µM
  viability, T/C: 124%
Second compound 0.000949 µM, first compound 0.3 µM
  viability, T/C: 91.4%
Second compound 0.000949 µM, first compound 0.949 µM
  viability, T/C: 53.9%
Second compound 0.000949 µM, first compound 3 µM
  viability, T/C: 0.33%
[1]
  viability, T/C: 2.12%
[2]
  viability, T/C: 1.88%
[3]
  viability, T/C: 3%
[4]
  viability, T/C: 1.46%
[5]
  viability, T/C: 0.37%
[6]
  viability, T/C: 0.31%

## CC(C)n1c(=O)n(C)c2cnc3cc(F)c(-c4ccc(OCCCN5CCCCC5)nc4)cc3c21 + COc1cc2c(cc1O)CCNC21CSC2c3c(OC(C)=O)c(C)c4c(c3C(COC1=O)N1C(O)C3Cc5cc(C)c(OC)c(O)c5C(C21)N3C)OCO4
Second compound 30 pM
  pIC50: 5.01
Second compound 94.9 pM
  pIC50: 5.17
Second compound 0.0003 µM
  pIC50: 5.16
Second compound 0.000949 µM
  pIC50: 5.17
Second compound 0.003 µM
  pIC50: > 7.50
Second compound 30 pM, first compound 0.0316 µM
  viability, T/C: 110%
Second compound 30 pM, first compound 0.1 µM
  viability, T/C: 102%
Second compound 30 pM, first compound 0.316 µM
  viability, T/C: 121%
Second compound 30 pM, first compound 1 µM
  viability, T/C: 110%
Second compound 30 pM, first compound 3.16 µM
  viability, T/C: 91%
Second compound 30 pM, first compound 10 µM
  viability, T/C: 49.4%
Second compound 94.9 pM, first compound 0.0316 µM
  viability, T/C: 108%
Second compound 94.9 pM, first compound 0.1 µM
  viability, T/C: 102%
Second compound 94.9 pM, first compound 0.316 µM
  viability, T/C: 112%
Second compound 94.9 pM, first compound 1 µM
  viability, T/C: 103%
Second compound 94.9 pM, first compound 3.16 µM
  viability, T/C: 90.4%
Second compound 94.9 pM, first compound 10 µM
  viability, T/C: 29.2%
Second compound 0.0003 µM, first compound 0.0316 µM
  viability, T/C: 107%
Second compound 0.0003 µM, first compound 0.1 µM
  viability, T/C: 125%
Second compound 0.0003 µM, first compound 0.316 µM
  viability, T/C: 122%
Second compound 0.0003 µM, first compound 1 µM
  viability, T/C: 102%
Second compound 0.0003 µM, first compound 3.16 µM
  viability, T/C: 102%
Second compound 0.0003 µM, first compound 10 µM
  viability, T/C: 27.4%
Second compound 0.000949 µM, first compound 0.0316 µM
  viability, T/C: 98.2%
Second compound 0.000949 µM, first compound 0.1 µM
  viability, T/C: 103%
Second compound 0.000949 µM, first compound 0.316 µM
  viability, T/C: 104%
Second compound 0.000949 µM, first compound 1 µM
  viability, T/C: 120%
Second compound 0.000949 µM, first compound 3.16 µM
  viability, T/C: 97.4%
Second compound 0.000949 µM, first compound 10 µM
  viability, T/C: 25.4%
Second compound 0.003 µM, first compound 0.0316 µM
  viability, T/C: 1.2%
Second compound 0.003 µM, first compound 0.1 µM
  viability, T/C: 2.1%
Second compound 0.003 µM, first compound 0.316 µM
  viability, T/C: 1.2%
Second compound 0.003 µM, first compound 1 µM
  viability, T/C: 3.57%
Second compound 0.003 µM, first compound 3.16 µM
  viability, T/C: 1.96%
Second compound 0.003 µM, first compound 10 µM
  viability, T/C: 1%

## COc1cc2c(cc1O)CCNC21CSC2c3c(OC(C)=O)c(C)c4c(c3C(COC1=O)N1C(O)C3Cc5cc(C)c(OC)c(O)c5C(C21)N3C)OCO4 (stereo not drawn)
Compound 30 pM
  viability, T/C: 104% [middle of 10 runs]
Compound 0.003 µM
  viability, T/C: 1.23% [middle of 10 runs]
Compound alone, run of 12/12/2019
  IC50: 1.76 nM [middle of 10 runs]

## Cn1ncnc1[C@H]1c2n[nH]c(=O)c3cc(F)cc(c23)N[C@@H]1c1ccc(F)cc1 + CC[C@@]1(O)C(=O)OCc2c1cc1n(c2=O)Cc2cc3c(CN(C)C)c(O)ccc3nc2-1
Second compound 0.003 µM
  pIC50: < 5.52
Second compound 0.00949 µM
  pIC50: < 5.52
Second compound 0.03 µM
  pIC50: < 5.52
Second compound 0.0949 µM
  pIC50: < 5.52
Second compound 0.3 µM
  pIC50: < 5.52
[1]
  viability, T/C: 102%
[2]
  viability, T/C: 87.8%
[3]
  viability, T/C: 88.7%
[4]
  viability, T/C: 82.4%
[5]
  viability, T/C: 93.7%
[6]
  viability, T/C: 98.7%
Second compound 0.00949 µM, first compound 0.00949 µM
  viability, T/C: 84.4%
Second compound 0.00949 µM, first compound 0.03 µM
  viability, T/C: 106%
Second compound 0.00949 µM, first compound 0.0949 µM
  viability, T/C: 88.3%
Second compound 0.00949 µM, first compound 0.3 µM
  viability, T/C: 95.2%
Second compound 0.00949 µM, first compound 0.949 µM
  viability, T/C: 82.6%
Second compound 0.00949 µM, first compound 3 µM
  viability, T/C: 91.6%
Second compound 0.03 µM, first compound 0.00949 µM
  viability, T/C: 89.4%
Second compound 0.03 µM, first compound 0.03 µM
  viability, T/C: 80.1%
Second compound 0.03 µM, first compound 0.0949 µM
  viability, T/C: 92.2%
Second compound 0.03 µM, first compound 0.3 µM
  viability, T/C: 79.9%
Second compound 0.03 µM, first compound 0.949 µM
  viability, T/C: 91.1%
Second compound 0.03 µM, first compound 3 µM
  viability, T/C: 91.9%
Second compound 0.0949 µM, first compound 0.00949 µM
  viability, T/C: 70.8%
Second compound 0.0949 µM, first compound 0.03 µM
  viability, T/C: 73.5%
Second compound 0.0949 µM, first compound 0.0949 µM
  viability, T/C: 66.1%
Second compound 0.0949 µM, first compound 0.3 µM
  viability, T/C: 72.2%
Second compound 0.0949 µM, first compound 0.949 µM
  viability, T/C: 69.2%
Second compound 0.0949 µM, first compound 3 µM
  viability, T/C: 77.8%
Second compound 0.3 µM, first compound 0.00949 µM
  viability, T/C: 60.5%
Second compound 0.3 µM, first compound 0.03 µM
  viability, T/C: 59%
Second compound 0.3 µM, first compound 0.0949 µM
  viability, T/C: 58.9%
Second compound 0.3 µM, first compound 0.3 µM
  viability, T/C: 56.5%
Second compound 0.3 µM, first compound 0.949 µM
  viability, T/C: 59.2%
Second compound 0.3 µM, first compound 3 µM
  viability, T/C: 66.9%
